Laboratory results as given in patent EP4745118A1, “HYDROXAMIC ACID COMPOUND OR PHARMACEUTICALLY ACCEPTABLE SALT THEREOF, AND USE THEREOF AND PREPARATION METHOD THEREFOR” (priority 2023, dated 2025).
Values after ≈ are worked out from the molar mass of the structure shown. Where two headings read alike, the source gives them in different places.

Experiments:
Assay in all cases: In vitro antibacterial activity, agar dilution method (MIC)
Assay type in all cases: cell-based
Serratia marcescens = conditions: ATCC21074; Serratia marcescens ATCC 21074; agar dilution, 35°C, 18 hours; read-out: MIC
Description: (§1) According to the relevant operating procedures of the Clinical Laboratory Standards Institute (CLSI) in the United States, an antimicrobial susceptibility testing was conducted using the agar dilution method. […]. The agar was allowed to solidify and set aside for later use.
(§2) The test bacteria were propagated in broth and adjusted to a turbidity of 0.5 McFarland (approximately 1-2 × 10^8 CFU/mL) using a turbidimeter before inoculation. The 0.5 McFarland bacterial solution was then diluted 10-fold in broth (approximately 1-2 × 10^7 CFU/mL). A multipoint inoculator was used to inoculate the above bacterial solution onto a series of plates containing different concentrations of drugs (with an inoculation amount of approximately 10^4 CFU per inoculation site). After incubation at a constant temperature of 35°C for 18 hours, results were observed. The minimum concentration of drugs contained in sterile growth plates was determined as the Minimal Inhibitory Concentration (MIC).

Proteus mirabilis = conditions: ATCC49565; Proteus mirabilis ATCC 49565; agar dilution, 35°C, 18 hours; read-out: MIC
Description: as §1, §2

Citrobacter freundii = conditions: ATCC43864; Citrobacter freundii ATCC 43864; agar dilution, 35°C, 18 hours; read-out: MIC
Description: as §1, §2

Escherichia coli = conditions: Escherichia coli, agar dilution, 35°C
Description: as §1, §2

Pseudomonas aeruginosa = Pseudomonas aeruginosa PAO1; agar dilution, 35°C, 18 hours; read-out: MIC
Description: as §1, §2

Klebsiella pneumoniae = conditions: Klebsiella pneumoniae, agar dilution, 35°C, 18 hours
Description: as §1, §2

Proteus vulgaris = conditions: ATCC29905; Proteus vulgaris ATCC 29905; agar dilution, 35°C, 18 hours; read-out: MIC
Description: as §1, §2

Pantoea agglomerans = conditions: ATCC27993; Pantoea agglomerans ATCC 27993; agar dilution, 35°C, 18 hours; read-out: MIC
Description: as §1, §2

Enterobacter aerogenes = conditions: Klebsiella aerogenes, ATCC13048; Enterobacter aerogenes ATCC 13048; agar dilution, 35°C, 18 hours; read-out: MIC
Description: as §1, §2

Shigella flexneri = conditions: ATCC12022, Shigella flexneri ATCC 12022, 35°C, 18 hours, read-out: MIC
Description: According to the relevant operating procedures of the Clinical Laboratory Standards Institute (CLSI) in the United States, an antimicrobial susceptibility testing was conducted using the agar dilution method. A 1920 µg/mL stock solution was serially diluted twofold with sterile water to obtain dilutions of 960, 480, 240, 120, 60, 30, 15, 7.5, 3.75, 1.88, 0.94, 0.47 µg/mL, and 1 mL of the dilution was taken respectively from the dilutions with different concentrations and added to a Petri dish, to which 14 mL of melted MH agar medium was added and mixed thoroughly, and the final concentration of the drug in the petri dish is 128, 64, 32, 16, 8, 4, 2, 1, 0.5, 0.25, 0.12, 0.06, and 0.03 µ g/mL, respectively. The agar was allowed to solidify and set aside for later use.
as §2

Enterobacter cloacae = Enterobacter cloacae CDC1000654 (NDM-1-producing); agar dilution, 35°C, 18 hours; read-out: MIC
Description: According to the relevant operating procedures of the Clinical Laboratory Standards Institute (CLSI) in the United States, an antimicrobial susceptibility testing was conducted using the agar dilution method. […] The agar was allowed to solidify and set aside for later use.
as §2

[1] = 18 h, Escherichia coli 13-43 (mcr-1), 18 hours, read-out: MIC
[2] = 18 h, Escherichia coli 17-R28 (CRE, NDM-1-producing), 18 hours, read-out: MIC
[3] = ATCC2469, 18 h, Escherichia coli ATCC 2469 (CRE, NDM-1-producing), 18 hours, read-out: MIC
[4] = ATCC35218, 18 h, Escherichia coli ATCC 35218 (ESBLs-producing), 18 hours, read-out: MIC
[5] = 18 h, Klebsiella pneumoniae 09-20 (mcr-1), read-out: MIC
[6] = 18 h, Klebsiella pneumoniae 17-R27 (CRE), read-out: MIC
[7] = 18 h, Klebsiella pneumoniae 18-8 (ESBLs-producing), read-out: MIC
[8] = ATCC700603, 18 h, Klebsiella pneumoniae ATCC 700603 (ESBLs-producing), read-out: MIC
[9] = ATCCBAA2146, 18 h, Klebsiella pneumoniae ATCC BAA-2146 (CRE, NDM-1-producing), read-out: MIC
[10] = ATCCBAA2146, 18 h, Klebsiella pneumoniae ATCC BAA-2146 (CRE, NDM-1-producing)
[11] = 18 h, Escherichia coli 17-R28 (CRE, NDM-1-producing)

NCC[C@H](O)C(=O)N[C@@H]1C[C@H](N)[C@@H](O[C@H]2O[C@H](CN)[C@@H](O)[C@H](O)[C@H]2O)[C@H](O)[C@H]1O[C@H]1O[C@H](CO)[C@@H](O)[C@H](N)[C@H]1O [Amikacin]
MIC (Serratia marcescens): 2 µg/mL (≈ 3.42 µM)
MIC (Proteus mirabilis): 2 µg/mL (≈ 3.42 µM)
MIC (Citrobacter freundii): 2 µg/mL (≈ 3.42 µM)
MIC (Escherichia coli; [1]): 4 µg/mL (≈ 6.83 µM)
MIC (Escherichia coli; [2]): > 128 µg/mL
MIC (Escherichia coli; [3]): > 128 µg/mL
MIC (Escherichia coli; [4]): 4 µg/mL (≈ 6.83 µM)
MIC (Pseudomonas aeruginosa): 2 µg/mL (≈ 3.42 µM)
MIC (Klebsiella pneumoniae; [5]): > 128 µg/mL
MIC (Klebsiella pneumoniae; [6]): 2 µg/mL (≈ 3.42 µM)
MIC (Klebsiella pneumoniae; [7]): 1 µg/mL (≈ 1.71 µM)
MIC (Klebsiella pneumoniae; [8]): 1 µg/mL (≈ 1.71 µM)
MIC (Klebsiella pneumoniae; [9]): > 128 µg/mL
MIC (Proteus vulgaris): 1 µg/mL (≈ 1.71 µM)
MIC (Pantoea agglomerans): 2 µg/mL (≈ 3.42 µM)
MIC (Enterobacter aerogenes): 1 µg/mL (≈ 1.71 µM)
MIC (Shigella flexneri): 4 µg/mL (≈ 6.83 µM)
MIC (Enterobacter cloacae): > 128 µg/mL

C[C@H]1[C@H](NC(=O)/C(=N\OC(C)(C)C(=O)O)c2csc(N)n2)C(=O)N1S(=O)(=O)O [Aztreonam]
MIC (Serratia marcescens): 0.12 µg/mL (≈ 0.276 µM)
MIC (Proteus mirabilis): ≤ 0.03 µg/mL
MIC (Citrobacter freundii): 0.12 µg/mL (≈ 0.276 µM)
MIC (Escherichia coli; [1]): 16 µg/mL (≈ 36.7 µM)
MIC (Escherichia coli; [2]): 8 µg/mL (≈ 18.4 µM)
MIC (Escherichia coli; [3]): 4 µg/mL (≈ 9.19 µM)
MIC (Escherichia coli; [4]): ≤ 0.03 µg/mL
MIC (Pseudomonas aeruginosa): 4 µg/mL (≈ 9.19 µM)
MIC (Klebsiella pneumoniae; [5]): 0.25 µg/mL (≈ 0.574 µM)
MIC (Klebsiella pneumoniae; [6]): 0.25 µg/mL (≈ 0.574 µM)
MIC (Klebsiella pneumoniae; [7]): 1 µg/mL (≈ 2.3 µM)
MIC (Klebsiella pneumoniae; [8]): 16 µg/mL (≈ 36.7 µM)
MIC (Klebsiella pneumoniae; [10]): > 128 µg/mL
MIC (Proteus vulgaris): ≤ 0.03 µg/mL
MIC (Pantoea agglomerans): ≤ 0.03 µg/mL
MIC (Enterobacter aerogenes): 0.12 µg/mL (≈ 0.276 µM)
MIC (Shigella flexneri): 0.06 µg/mL (≈ 0.138 µM)

CO/N=C(\C(=O)N[C@@H]1C(=O)N2C(C(=O)[O-])=C(C[N+]3(C)CCCC3)CS[C@H]12)c1csc(N)n1 [Cefepime]
MIC (Serratia marcescens): 0.06 µg/mL (≈ 0.125 µM)
MIC (Proteus mirabilis): 0.06 µg/mL (≈ 0.125 µM)
MIC (Citrobacter freundii): ≤ 0.03 µg/mL
MIC (Escherichia coli; [1]): 2 µg/mL (≈ 4.16 µM)
MIC (Escherichia coli; [11]): > 128 µg/mL
MIC (Escherichia coli; [3]): 64 µg/mL (≈ 133 µM)
MIC (Escherichia coli; [4]): ≤ 0.03 µg/mL
MIC (Pseudomonas aeruginosa): 2 µg/mL (≈ 4.16 µM)
MIC (Klebsiella pneumoniae; [5]): 1 µg/mL (≈ 2.08 µM)
MIC (Klebsiella pneumoniae; [6]): 0.5 µg/mL (≈ 1.04 µM)
MIC (Klebsiella pneumoniae; [7]): 1 µg/mL (≈ 2.08 µM)
MIC (Klebsiella pneumoniae; [8]): 1 µg/mL (≈ 2.08 µM)
MIC (Klebsiella pneumoniae; [10]): 128 µg/mL (≈ 266 µM)
MIC (Proteus vulgaris): ≤ 0.03 µg/mL
MIC (Pantoea agglomerans): 0.06 µg/mL (≈ 0.125 µM)
MIC (Enterobacter aerogenes): 0.06 µg/mL (≈ 0.125 µM)
MIC (Shigella flexneri): ≤ 0.03 µg/mL

COCC1CC1C#CC#Cc1ccc(C(=O)N[C@H](C(=O)NO)C(C)(C)N)cc1 (some centres unmarked) [Formula I]
MIC (Serratia marcescens): 0.5 µg/mL
MIC (Proteus mirabilis): 2 µg/mL
MIC (Citrobacter freundii): 0.5 µg/mL
MIC (Escherichia coli; [1]): 0.5 µg/mL
MIC (Escherichia coli; [2]): 0.5 µg/mL
MIC (Escherichia coli; [3]): 0.5 µg/mL
MIC (Escherichia coli; [4]): 0.5 µg/mL
MIC (Pseudomonas aeruginosa): 2 µg/mL
MIC (Klebsiella pneumoniae; [5]): 2 µg/mL
MIC (Klebsiella pneumoniae; [6]): 2 µg/mL
MIC (Klebsiella pneumoniae; [8]): 4 µg/mL
MIC (Klebsiella pneumoniae; [9]): 8 µg/mL
MIC (Proteus vulgaris): 0.5 µg/mL
MIC (Pantoea agglomerans): 4 µg/mL
MIC (Enterobacter aerogenes): 2 µg/mL
MIC (Shigella flexneri): 0.25 µg/mL
MIC (Enterobacter cloacae): 4 µg/mL

C[C@@H](O)[C@H]1C(=O)N2C(C(=O)O)=C(SCCN=CN)C[C@H]12 [Imipenem]
MIC (Serratia marcescens): 0.5 µg/mL (≈ 1.67 µM)
MIC (Proteus mirabilis): 1 µg/mL (≈ 3.34 µM)
MIC (Citrobacter freundii): 0.25 µg/mL (≈ 0.835 µM)
MIC (Escherichia coli; [1]): 0.12 µg/mL (≈ 0.401 µM)
MIC (Escherichia coli; [2]): > 128 µg/mL
MIC (Escherichia coli; [3]): 8 µg/mL (≈ 26.7 µM)
MIC (Escherichia coli; [4]): 0.12 µg/mL (≈ 0.401 µM)
MIC (Klebsiella pneumoniae; [5]): 0.12 µg/mL (≈ 0.401 µM)
MIC (Klebsiella pneumoniae; [6]): 0.12 µg/mL (≈ 0.401 µM)
MIC (Klebsiella pneumoniae; [7]): 0.12 µg/mL (≈ 0.401 µM)
MIC (Klebsiella pneumoniae; [8]): 0.25 µg/mL (≈ 0.835 µM)
MIC (Klebsiella pneumoniae; [9]): 32 µg/mL (≈ 107 µM)
MIC (Proteus vulgaris): 0.25 µg/mL (≈ 0.835 µM)
MIC (Pantoea agglomerans): 0.12 µg/mL (≈ 0.401 µM)
MIC (Enterobacter aerogenes): 0.25 µg/mL (≈ 0.835 µM)
MIC (Shigella flexneri): 0.12 µg/mL (≈ 0.401 µM)
MIC (Enterobacter cloacae): 2 µg/mL (≈ 6.68 µM)

C[C@H]1COc2c(N3CCN(C)CC3)c(F)cc3c(=O)c(C(=O)O)cn1c23 [Levofloxacin]
MIC (Serratia marcescens): 0.25 µg/mL (≈ 0.692 µM)
MIC (Proteus mirabilis): 0.12 µg/mL (≈ 0.332 µM)
MIC (Citrobacter freundii): ≤ 0.03 µg/mL
MIC (Escherichia coli; [1]): 64 µg/mL (≈ 177 µM)
MIC (Escherichia coli; [2]): 8 µg/mL (≈ 22.1 µM)
MIC (Escherichia coli; [3]): 16 µg/mL (≈ 44.3 µM)
MIC (Escherichia coli; [4]): ≤ 0.03 µg/mL
MIC (Pseudomonas aeruginosa): 0.5 µg/mL (≈ 1.38 µM)
MIC (Klebsiella pneumoniae; [5]): 16 µg/mL (≈ 44.3 µM)
MIC (Klebsiella pneumoniae; [6]): 16 µg/mL (≈ 44.3 µM)
MIC (Klebsiella pneumoniae; [7]): 1 µg/mL (≈ 2.77 µM)
MIC (Klebsiella pneumoniae; [8]): 1 µg/mL (≈ 2.77 µM)
MIC (Klebsiella pneumoniae; [10]): > 128 µg/mL
MIC (Proteus vulgaris): ≤ 0.03 µg/mL
MIC (Pantoea agglomerans): 0.06 µg/mL (≈ 0.166 µM)
MIC (Enterobacter aerogenes): 0.06 µg/mL (≈ 0.166 µM)
MIC (Shigella flexneri): ≤ 0.03 µg/mL
MIC (Enterobacter cloacae): 64 µg/mL (≈ 177 µM)

C[C@@H](O)[C@H]1C(=O)N2C(C(=O)O)=C(S[C@@H]3CN[C@H](C(=O)N(C)C)C3)[C@H](C)[C@H]12 [Meropenem]
MIC (Serratia marcescens): 0.06 µg/mL (≈ 0.156 µM)
MIC (Proteus mirabilis): 0.06 µg/mL (≈ 0.156 µM)
MIC (Citrobacter freundii): ≤ 0.03 µg/mL
MIC (Escherichia coli; [1]): ≤ 0.03 µg/mL
MIC (Escherichia coli; [11]): 128 µg/mL (≈ 334 µM)
MIC (Escherichia coli; [3]): 8 µg/mL (≈ 20.9 µM)
MIC (Escherichia coli; [4]): ≤ 0.03 µg/mL
MIC (Pseudomonas aeruginosa): 2 µg/mL (≈ 5.22 µM)
MIC (Klebsiella pneumoniae; [5]): ≤ 0.03 µg/mL
MIC (Klebsiella pneumoniae; [6]): 0.25 µg/mL (≈ 0.652 µM)
MIC (Klebsiella pneumoniae; [7]): ≤ 0.03 µg/mL
MIC (Klebsiella pneumoniae; [8]): ≤ 0.03 µg/mL
MIC (Klebsiella pneumoniae; [9]): 32 µg/mL (≈ 83.4 µM)
MIC (Proteus vulgaris): ≤ 0.03 µg/mL
MIC (Pantoea agglomerans): ≤ 0.03 µg/mL
MIC (Enterobacter aerogenes): 0.06 µg/mL (≈ 0.156 µM)
MIC (Shigella flexneri): ≤ 0.03 µg/mL
MIC (Enterobacter cloacae): 4 µg/mL (≈ 10.4 µM)
